The target of one series is T1, PH-domain of AKT (Homo sapiens, UniProt P31749).
T1 construct: made in house
Briefly: SPR binding to expressed PH-domain of AKT. The procedure: In embodiments, the binding of identified compounds to the crystal structures of other PH-domain signaling proteins, AKT, PDPK1, Btk, and Tiam1 can be predicted. In such embodiments, the Kds exceed about 100 μM. In other embodiments, SPR can measure the binding of identified compounds to the expressed PH-domains of AKT, PDPK1 and Tiam1. […] Thus, the identified compounds appear have, at least, about 50 to about 100 fold selectivity for CNKSR1 compared to the other PH-domains studied.
A commercially available docking package, GOLD (GOLD [3.2], CCDC: Cambridge, UK, 2007) was used to evaluate the docking of compounds 1-7 into the binding pocket, see e.g. Table 5. Other docking was performed using modeling algorithms with state-of-the-art commercial drug discovery software (Schrodinger suite). GLIDE was chosen as the docking algorithm used to select and optimize compounds, providing a GlideScore as a rough estimate of binding affinity that was used to rank and select the best compounds. Additionally, ligand-based approaches provided an alternative to structure based drug discovery. Ligand-based virtual screening methodologies can take into account shape and electrostatics (like ROCS) and the pharmacophoric features (acceptor, donor, hydrophobic, aromatic, etc.) of its functional groups. […]
(Surface plasmon resonance follows binding to a sensor surface in real time, without labels.)

In series [1] the test system is mut-KRAS NSCLC cell lines. Briefly: Screening against NSCLC cell line panel, mut-KRAS lines. The class given is cell-based. The procedure:
The isogenic KRAS lines harboring G12D, G12C, and G12V were obtained from Horizon Discovery labs on a one year lease. These cells were cultured in McCoys media with 10% FBS to 80% confluency. Cells were then released from flasks via trypsinization and plated into 96-well plates at an initial density range of 2000 cells per well. Cells were allowed 24 hours to attach, and then the agents were added to the culture media at a range of concentrations from 0-100 μM. Cells were incubated for 72 hours with the drugs, and then viability was assessed using an MTS viability assay. Cells were exposed to MTS reagent (Promega) dissolved in PBS (Hyclone) at a concentration of 200 μL reagent/mL media for 2 hours. Absorbance was then read at 490 nm, and viability was expressed as a percentage normalized between the negative control (no cells plated) and the condition of cells with no drug added (100% viability) normalized as the upper limit of viability.
Our panel of 30 cell lines and an extensive characterization were obtained from Dr. John Minna (UTSW). All cell lines were cultured in RPMI 1640 with 10% FBS. Cells were treated with concentrations of agents at concentrations 0.01 to 50 μM and evaluated as described above. IC50's were determined using Excelfit.

Series [2] deals with mut-KRAS H2122 NSCLC tumor xenograft. Kind of series: Antitumor activity, H2122 xenograft. The series is classed as in vivo. The note with it: scid mice. Here is the method: In embodiments, identified compounds may be nontoxic at about […] for about 20 days with no weight loss and no observable toxic effects for the animal, and may have antitumor activity (FIG. 4 A).

Series [3] is described as follows: Pharmacokinetics after oral administration. The class given is in vivo, mice. As to conditions: for elimination half life: oral, mice. Here is the method:
In order to understand better the reasons for the antitumor activity of compound #7 pharmacokinetic studies were conducted. […] Following oral administration in vivo plasma concentrations of the parent compound were low, about 3 μg/ml (7 μM) whereas the de-esterified acid form (compound 8) was present at high peak concentrations of around 50 μg/ml (128 μM). When compound 8 was administered orally to mice at the same dose even higher peak concentrations of 90 μg/ml (230 μM) were achieved.

Series [4] can be described thus: Stability in biological media: human plasma. The class given is in vitro ADME. The note with it: 50 μg/ml, 37° C.

We go through one compound from patent publication US9340532B2, “Methods and compositions for inhibiting CNKSR1” (PHUSIS THERAPEUTICS, INC., priority 2012, dated 2016).

The structures appear in SMILES notation. Several values for one entry are separate records, joined by “and”; a condition that tells them apart may be missing. Equal values may be shown once. Entries after “also recorded” stand apart in the source; their conditions may differ. Read-outs that look alike come from different tables or passages of the source.

T1 sequence (P31749 5-108 limits assumed): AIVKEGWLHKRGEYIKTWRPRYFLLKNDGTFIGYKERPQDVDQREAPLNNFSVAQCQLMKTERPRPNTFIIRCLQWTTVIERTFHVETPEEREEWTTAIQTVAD

What is called IC50 is the midpoint of a concentration-inhibition curve. Consider `CCOC(=O)Cc1nn(Cc2nc(-c3ccc(C)cc3)cs2)c(=O)c2ccccc12` [Compound 7], for which, on PH-domain of AKT, the “SPR binding to PH-domain of AKT” value is on record as “No measurable binding”. The “inhibition of mut-KRAS cell growth (in words)” value in series [1] (FIG. 3 and FIG. 5) is “low micromolar inhibition; also recorded: as effectively as siRNA to KRAS or CNKSR1”. Also, the IC50 turned out to be 23.9 ± 2.5 µM in series [1] (Table 5, read-out: Mean IC50 mut-KRAS) and 49 µM in series [1] (Table 6, mean of 3 mut-KRAS lines, read-out: NSCL cell line cytotoxicity IC50 mut-KRAS). Moreover, the “tumor growth rate inhibition” value in series [2] was “about 45%”. Moreover, in series [2] (vehicle about 55), the tumor growth rate entry is recorded as “about 30 mm^3/day”. Besides, the “plasma concentration of the parent compound” value in series [3] (compound #7 orally 200 mg/kg, 200 mg/kg) was “about 3 μg/ml and ~7 μM”. Also, the elimination half life in series [3] was found to be 13 h; in series [3] (listed as #7), 6 h. Moreover, the “metabolism in vivo to the acid metabolite” value in series [3] (orally 200 mg/kg, FIG. 4B) is “rapidly de-esterified”. Also, the Half life result in series [4] was “stable”; in series [4] (listed as #7), “completely stable”.
